Data from US20240261237A1, “REDUCING SIDE EFFECTS OF NMDA RECEPTOR ANTAGONISTS” (Seelos Therapeutics, Inc., priority 2021, published 2024).

Tests used:
subjects = conditions: in vivo; cited from earlier work
[1] = in vivo; cited from earlier work
[2] = system: adults with major depressive disorder (MDD) at imminent risk of suicide; assay: Example 4 Phase 2 study: MADRS Total; type: in vivo, human; conditions: both subjects; 24 hours
Source text: The Montgomery-Åsberg Depression Rating Scale (MADRS) is used to assess the severity of depression among subjects who have a diagnosis of depression. The MADRS includes 10 items and uses a 0 to 6 severity scale, scored following the interview. Higher scores indicate increasing depressive symptoms. Ratings can be added to form an overall score (range 0 to 60); no weights are used. Cut-off points include: 0 to 6—symptom absent, 7 to 19—mild depression, 20 to 34—moderate, 35 to 60—severe depression.
(§1) MADRS is a diagnostic questionnaire that can be used to measure the severity of a depressive episode in a subject. In some embodiments, the MADRS can be used to measure the severity of depressive symptoms in a subject, for example, a subject suffering from MDD, TRD, bipolar depression, and other psychiatric disorders described herein with a depression component. In some embodiments, the MADRS can be used to measure TRD. In some embodiments, the MADRS can be used to measure other psychiatric disorders, as described herein. […]

[3] = system: adults with major depressive disorder (MDD) at imminent risk of suicide; assay: Example 4 Phase 2 study: MADRS item 10 (suicidality); type: in vivo, human; conditions: for MADRS item 10 score: 24 hours post-administration
Source text: as §1

[4] = system: adults with major depressive disorder (MDD) at imminent risk of suicide; assay: Example 4 Phase 2 study: STS-CMCM total score; type: in vivo, human; conditions: for STS mean score: baseline 21.9; for STS-CMCM score (range 0-52 units): 24 hours post-administration
Source text: The Sheehan Suicidality Tracking Scale (Sheehan-STS, S-STS) is a prospective rating scale that tracks both treatment-emergent suicidal ideation and behaviors. The Sheehan-STS is a scale with 14 core items and nine additional questions contingent on the core responses that can be administered either by a clinician or patient through self-report. Each item in the Sheehan-STS is scored on a 5-point Likert scale (0=not at all, 1=a little, 2-moderately, 3=very, and 4-extremely).
(§2) The CMCM version of the S-STS (S-STS CMCM) has four parts, and can also provide a comprehensive description of suicidal ideation and behavior. See, e.g., Sheehan et al., Innov. Clin. Neurosci. Vol. 11, No. 9-10, pp. 93-140 (2014) The S-STS CMCM (version 01/01/19) is a clinician-rated outcome measure which assesses SI/B on multiple patient and clinician-rated items. It includes 13 suicidality items that are rated on a Likert-type scale ranging from “not at all” (0) to “extremely” (4), yielding a total score ranging from 0 to 52. The final 6 items are used only when the patient misses a visit and is unable to complete the scale; if that missed visit is due to attempted or completed suicide, the possible maximum score is […]. The CMCM also yields 5 different single-item global assessments: 1) subject-rated likelihood of a suicide attempt; 2) subject-rated treatment needed; 3) clinician global severity of suicidal impulses, thoughts, and behaviors; 4) clinician judgment of suicide risk at this time and level of management needed for suicidality; and 5) clinician judgment of subject's likelihood of making a suicide attempt or of dying by suicide in the next 7 days.
(§3) The secondary endpoints are the change from baseline at 24 hours, as well as at Day 16, in the following: • (1) PGIS-SI/B (Day 16 only) • (2) S-STS total score (Day 16 only) • (3) CGI of Change in SI/B (CGIC-SI/B) • (4) PGI of Change in SI/B (PGIC-SI/B) • (5) S-STS Clinician-Rated Global Severity of Suicidal Impulses, Thoughts, and Behaviors • (6) S-STS Clinician judgment of subject's risk of a suicide attempt or death by suicide at this time • (7) S-STS Clinician judgment of subject's likelihood (risk) of making a suicide attempt or of dying by suicide in the next 7 days • (8) S-STS Subject-rated global severity of suicidal impulses, thoughts, and behavior • (9) S-STS Subject-rated treatment needed score • (10) MADRS item 10 response rate (response≤3 units) • (11) MADRS response (total score ≥50% reduction from baseline) • (12) MADRS remission (total score ≤12)

[5] = system: adults with major depressive disorder (MDD) at imminent risk of suicide; assay: Example 4 Phase 2 study: STS-CMCM risk of suicide at this time; type: in vivo, human
Source text: as §2, §3

[6] = system: adults with major depressive disorder (MDD) at imminent risk of suicide; assay: Example 4 Phase 2 study: STS-CMCM Risk of Suicide at Within the Next 7 Days; type: in vivo, human
Source text: as §2, §3

[7] = system: adults with major depressive disorder (MDD) at imminent risk of suicide; assay: Example 4 Phase 2 study: C-SSRS; conditions: 24 hours post-administration, baseline yes
[8] = system: adults with major depressive disorder (MDD) at imminent risk of suicide; assay: Example 4 Phase 2 study: adverse events; conditions: in vivo
[9] = system: adults with major depressive disorder (MDD) at imminent risk of suicide; assay: Example 4 Phase 2 study: MOAA/S (sedation)
[10] = system: adults with major depressive disorder (MDD) at imminent risk of suicide; assay: Example 4 Phase 2 study: CADSS (dissociation); conditions: for CADSS change from baseline: at 40 minutes

## NC1(c2ccccc2Cl)CCCC(O)C1=O (stereo not shown) [6-hydroxynorketamine]
subjects
  movement during the anesthetic recovery phase / locomotor activity: no anesthetic or locomotor activity
[1]
  antidepressant properties: exhibit antidepressant properties

## NC1(c2ccccc2Cl)CCCCC1=O (stereo not shown) [norketamine]
subjects
  movement during the anesthetic recovery phase / locomotor activity: increased movement during the anesthetic recovery phase

## CNC1(c2ccccc2Cl)CCCCC1=O (racemic) [racemic ketamine, (R)-2-(2-chlorophenyl)-2-(methylamino)cyclohexanone and (S)-2-(2-chlorophenyl)-2-(methylamino)cyclohexanone]
[2]
  reduction of MADRS Total: > 50%
[3]; Subject 1, baseline 5 units
  MADRS item 10 score: 0 units
[3]; second subject (not named), baseline 5 units pre-dose
  MADRS item 10 score: 0 units
[3]; with SOC
  sustained response (MADRS Item 10) after the final administration: 15 days
[4]; Day 1
  patients with >14 points within-patient change from baseline in STS: 94%
  STS mean score: 1.7
[4]; Day 1, 1 patient
  patients with 4 points within-patient change in STS: 6%
[4]; Day 16
  STS mean score: 0.0
[4]; Day 29
  STS mean score: 0.0
[4]; Subject 1, from 18 units
  STS-CMCM score (range 0-52 units): zero
[4]; Subject 2, from 22 units
  STS-CMCM score (range 0-52 units): 3 units
[5]; Subject 1, 24 hours post-administration, baseline 7 units
  STS-CMCM score (range 0-9; risk of suicide at this time): 3 units
[5]; Subject 1, Day 9
  STS-CMCM score (range 0-9; risk of suicide at this time): 2 units
[5]; Subject 2, 24 hours post-administration, from 7 units
  STS-CMCM score (range 0-9; risk of suicide at this time): 3 units
[5]; Subject 2, Day 9
  STS-CMCM score (range 0-9; risk of suicide at this time): zero
[5]; both subjects, Day 8
  STS-CMCM score (range 0-9; risk of suicide at this time): 2 units
[6]; Subject 1, 24 hours post-administration, from 5 units
  STS-CMCM Risk of Suicide at Within the Next 7 Days score: 2 units
[6]; Subject 2, 24 hours post-administration, baseline 7 units
  STS-CMCM Risk of Suicide at Within the Next 7 Days score: 1 unit
[6]; the scores on Day 4
  STS-CMCM Risk of Suicide at Within the Next 7 Days score: 1 unit
[6]; the scores on Day 8
  STS-CMCM Risk of Suicide at Within the Next 7 Days score: 0 units
subjects
  movement during the anesthetic recovery phase / locomotor activity: increased movement during the anesthetic recovery phase
[1]
  antidepressant properties: exhibit antidepressant properties
[7]; Subject 1
  C-SSRS score for suicidal ideation (yes or no): no
[7]; Subject 2
  C-SSRS score for suicidal ideation (yes or no): no
[8]
  serious adverse events: no serious adverse events were observed
[9]; 6-hour time-point on Day 4
  MOAA/S score of the 1 subject with a score <5 units on subsequent dosing days: 4 units
[9]; Day 1, 7 subjects
  subjects with MOAA/S score of 5 units at all time-points: 5 of 7
[9]; Day 1, no one below
  MOAA/S score, all subjects: ≥ 4 units
[10]; Days 1 and 4, 7 subjects
  subjects with no dissociation (CADSS): four of the 7
[10]; after Day 4 (on Day 11 at 40 minutes), 7 subjects
  subjects reporting dissociation: 1
[10]; Day 4 (after second dose)
  CADSS change from baseline: 2.3
[10]; Day 8 (after third dose)
  CADSS change from baseline: 0.4
[10]; after first dose
  CADSS change from baseline: 3.8
[10]; entire patient cohort to the Day 29/30 endpoint
  sedation or dissociation: no clinically meaningful sedation or dissociation
